Assay results taken from patent publication US9416111B2, “Substituted diazine and triazine spleen tyrosine kinease (Syk) inhibitors” (Merck Sharp & Dohme Corp., priority 2012, dated 2016).
Values joined by “and” are separate entries in the source; they are usually repeats but may differ in a detail not shown here. Equal values may be shown once. Read-outs that look alike come from different tables or passages of the source.

Target: T1, recombinant human GST-SYK (Homo sapiens, UniProt P43405)
T1 construct: purchased Carna Biosciences 08-176
Test: Homogeneous Time-Resolved Fluorescence (HTRF) assay for the recombinant human Syk enzyme
Format: biochemical
Conditions: GST-hSYK 5 pM, ATP 25 μM
Experimental: Homogeneous Time-Resolved Fluorescence (HTRF) Assay for the Recombinant Human Syk Enzyme
A recombinant GST-hSYK fusion protein was used to measure potency of compounds to inhibit human Syk activity. The recombinant human GST-SYK (Carna Biosciences #08-176) (5 pM final concentration) was incubated with various concentrations of the inhibitor diluted in DMSO (0.1% final concentration) for 10 minutes at room temperature in 15 mM Tris-HCl (pH 7.5), 0.01% tween 20, 2 mM DTT in 384 well plate format. To initiate the reaction the biotinylated substrate peptide (250 nM final concentration) that contains the phosphorylation site for Syk was added with magnesium (5 mM final concentration) and ATP (25 μM final concentration). Final volume of the reaction was 10 μL. Phosphorylation of the peptide was allowed to proceed for 45′ at room temperature. To quench the reaction and detect the phosphorylated product, 2 nM of a Europium-anti-phosphotyrosine antibody (Perkin Elmer #AD0161) and 70 nM SA-APC (Perkin-Elmer #CR130-100) were added together in 15 mM Tris pH 7.5, 40 mM EDTA, 0.01% tween 20. Final volume of the quenching solution was 10 μL. The resulting HTRF signal was measured after 30 minutes on an EnVision (Perkin-Elmer) reader using a time-resolved fluorescence protocol.

[1] = IC50 rated in classes, read-out: rhSYK Activity

| SMILES | IC50 [1] | IC50 (values in text, read-out: IC50) [µM] |
| --- | --- | --- |
| COc1ccnc(Nc2cc(C)cc(-c3cnc(CCC(=O)O)nc3)c2)n1 [Example 1.5, 3-(5-{3-[(4-methoxypyrimidin-2-yl)amino]-5-methylphenyl}pyrimidin-2-yl)propanoic acid] | < 0.1 µM | – |
| Cc1cc(Nc2nccc(C(F)(F)F)n2)cc(-c2cnc(N3CCC(C)(O)C3)nc2)c1 (centres unmarked) [Example 2.28, 3-methyl-1-[5-(3-methyl-5-{[4-(trifluoromethyl)pyrimidin-2-yl]amino}phenyl)pyrimidin-2-yl]pyrrolidin-3-ol] | < 0.1 µM | – |
| Cc1cc(Nc2nccc(C(F)(F)F)n2)cc(-c2cnc(NCCc3c[nH]cn3)nc2)c1 [Example 2.33, N-[3-(2-{[2-(1H-imidazol-4-yl)ethyl]amino}pyrimidin-5-yl)-5-methylphenyl]-4-(trifluoromethyl)pyrimidin-2-amine] | < 0.1 µM | – |
| Cc1cc(Nc2nccc(C(F)(F)F)n2)cc(-c2cnc(NC3CCCCNC3=O)nc2)c1 (centres unmarked) [Example 2.42, 3-{[5-(3-methyl-5-{[4-(trifluoromethyl)pyrimidin-2-yl]amino}phenyl)pyrimidin-2-yl]amino}azepan-2-one] | < 0.1 µM | – |
| Cc1cc(Nc2nccc(C(F)(F)F)n2)cc(-c2cnc(NCC(O)CC(=O)O)nc2)c1 (centres unmarked) [Example 2.61] | < 0.1 µM | – |
| Cc1cc(Nc2nccc(C(F)(F)F)n2)cc(-c2cnc(N3CCC(=O)N(C)CC3)nc2)c1 [Example 2.24, 4-methyl-1-[5-(3-methyl-5-{[4-(trifluoromethyl)pyrimidin-2-yl]amino}phenyl)pyrimidin-2-yl]-1,4-diazepan-5-one] | < 0.1 µM | – |
| Cc1cc(Nc2nccc(C(F)(F)F)n2)cc(-c2cnc(N3CCC3C(=O)O)nc2)c1 (centres unmarked) [Example 2.54, 1-[5-(3-methyl-5-{[4-(trifluoromethyl)pyrimidin-2-yl]amino}phenyl)pyrimidin-2-yl]azetidine-2-carboxylic acid] | < 0.1 µM | – |
| CCCOC1CCCN(c2ncc(-c3cc(C)cc(Nc4nccc(C(F)(F)F)n4)c3)cn2)C1 (centres unmarked) [Example 2.53, N-{3-methyl-5-[2-(3-propoxypiperidin-1-yl)pyrimidin-5-yl]phenyl}-4-(trifluoromethyl)pyrimidin-2-amine] | 0.1 to 1 µM | – |
| Cc1cc(Nc2nccc(C(F)(F)F)n2)cc(-c2cnc(NCc3cn(C)cn3)nc2)c1 [Example 2.63, N-[3-methyl-5-(2-{[(1-methyl-1H-imidazol-4-yl)methyl]amino}pyrimidin-5-yl)phenyl]-4-(trifluoromethyl)pyrimidin-2-amine] | < 0.1 µM | – |
| CNC(=O)C1CCCN1c1ncc(-c2cc(C)cc(Nc3nccc(C(F)(F)F)n3)c2)cn1 (racemic) [Example 2.70, N-methyl-1-[5-(3-methyl-5-{[4-(trifluoromethyl)pyrimidin-2-yl]amino}phenyl)pyrimidin-2-yl]prolinamide] | < 0.1 µM | – |

Now from value to compound:

| IC50 [1] | IC50 (values in text, read-out: IC50) [µM] | SMILES |
| --- | --- | --- |
| 0.1 to 1 µM | – | CCOC(=O)CCc1cncc(-c2cc(C)cc(Nc3nccc(C4CC4)n3)c2)n1 [Example 3.21, ethyl 3-(6-{3-[(4-cyclopropylpyrimidin-2-yl)amino]-5-methylphenyl}pyrazin-2-yl)propanoate] |
| < 0.1 µM | – | Cc1cc(Nc2nccc(C(F)(F)F)n2)cc(-c2cnc(OC3CCC(C(=O)O)CC3)nc2)c1 (centres unmarked) [Example 3.60, 4-{[5-(3-methyl-5-{[4-(trifluoromethyl)pyrimidin-2-yl]amino}phenyl)pyrimidin-2-yl]oxy}cyclohexanecarboxylic acid] |
| 0.1 to 1 µM and < 0.1 µM | – | Cc1cc(Nc2nccc(C(F)(F)F)n2)cc(-c2cnccn2)c1 [Example 3.2, N-(3-methyl-5-pyrazin-2-ylphenyl)-4-(trifluoromethyl)pyrimidin-2-amine] |
| 0.1 to 1 µM | – | Cc1cc(Nc2nccc(C(F)(F)F)n2)cc(-c2ccncn2)c1 [Example 3.48, N-(3-methyl-5-pyrimidin-4-ylphenyl)-4-(trifluoromethyl)pyrimidin-2-amine] |
| < 0.1 µM | – | Cc1cc(Nc2nccc(C3CC3)n2)cc(-c2cncc(CCC(=O)O)n2)c1 [Example 3.22, 3-(6-{3-[(4-cyclopropylpyrimidin-2-yl)amino]-5-methylphenyl}pyrazin-2-yl)propanoic acid] |
| < 0.1 µM | – | Cc1cc(Nc2nccc(C(F)(F)F)n2)cc(-c2ccc(CCC(=O)O)nn2)c1 [Example 3.39, 3-[6-(3-methyl-5-{[4-(trifluoromethyl)pyrimidin-2-yl]amino}phenyl)pyridazin-3-yl]propanoic acid] |
| 0.1 to 1 µM | – | Cc1cc(Nc2nccc(C(F)(F)F)n2)cc(-c2cccnn2)c1 [Example 3.28, N-(3-methyl-5-pyridazin-3-ylphenyl)-4-(trifluoromethyl)pyrimidin-2-amine] |
| < 0.1 µM | – | Cc1cc(Nc2nccc(C(F)(F)F)n2)cc(-c2cnc(CCC(=O)O)cn2)c1 [Example 3.8, 3-[5-(3-methyl-5-{[4-(trifluoromethyl)pyrimidin-2-yl]amino}phenyl)pyrazin-2-yl]propanoic acid] |
| 1 to 10 µM | – | CCOC(=O)CCc1ccc(-c2cccc(Nc3nccc(C(F)(F)F)n3)c2)nn1 [Example 3.24, ethyl 3-[6-(3-{[4-(trifluoromethyl)pyrimidin-2-yl]amino}phenyl)pyridazin-3-yl]propanoate] |
| < 0.1 µM | – | COc1ccnc(Nc2cc(C)cc(-c3cnc(CCC(=O)O)cn3)c2)n1 [Example 3.6, 3-(5-{3-[(4-methoxypyrimidin-2-yl)amino]-5-methylphenyl}pyrazin-2-yl)propanoic acid] |
| < 0.1 µM | – | Cc1cc(Nc2nccc(C3CC3)n2)cc(-c2cnc(CCC(=O)O)nc2)c1 [Example 3.57, 3-(5-{3-[(4-cyclopropylpyrimidin-2-yl)amino]-5-methylphenyl}pyrimidin-2-yl)propanoic acid] |
| – | 0.0516 | Cc1cc(Nc2nccc(C3CC3)n2)cc(-c2cnc(CCC(=O)O)nc2)c1 [Example 3.1, 3-(5-{3-[(4-cyclopropylpyrimidin-2-yl)amino]-5-methylphenyl}pyrimidin-2-yl)propanoic acid] |
| 0.1 to 1 µM and < 0.1 µM | – | Cc1cc(Nc2nccc(C)n2)cc(-c2cnc(CCC(=O)O)nc2)c1 [Example 3.61, 3-(5-{3-methyl-5-[(4-methylpyrimidin-2-yl)amino]phenyl}pyrimidin-2-yl)propanoic acid] |
| 0.1 to 1 µM | – | Cc1cc(Nc2nccc(C(F)(F)F)n2)cc(-c2ccc(N3CCC(O)CC3)nn2)c1 [Example 3.30, 1-[6-(3-methyl-5-{[4-(trifluoromethyl)pyrimidin-2-yl]amino}phenyl)pyridazin-3-yl]piperidin-4-ol] |
| 0.1 to 1 µM | – | Cc1cc(Nc2nccc(C)n2)cc(-c2ccc(CCC(=O)O)nn2)c1 [Example 3.41, 3-(6-{3-methyl-5-[(4-methylpyrimidin-2-yl)amino]phenyl}pyridazin-3-yl)propanoic acid] |
| 0.1 to 1 µM | – | Cc1cc(Nc2nccc(C(F)(F)F)n2)cc(-c2ncccn2)c1 [Example 3.23, N-(3-methyl-5-pyrimidin-2-ylphenyl)-4-(trifluoromethyl)pyrimidin-2-amine] |
| < 0.1 µM | – | Cc1cc(Nc2nccc(C(F)(F)F)n2)cc(-c2ccc(N(C)CC(=O)O)nn2)c1 [Example 3.38, N-methyl-N-[6-(3-methyl-5-{[4-(trifluoromethyl)pyrimidin-2-yl]amino}phenyl)pyridazin-3-yl]glycine] |
| < 0.1 µM | 0.0216 | Cc1cc(Nc2nccc(C(F)(F)F)n2)cc(-c2cnc(NC3(C(N)=O)CC3)nc2)c1 [Example 4.1, 1-{[5-(3-methyl-5-{[4-(trifluoromethyl)pyrimidin-2-yl]amino}phenyl)pyrimidin-2-yl]amino}cyclopropanecarboxamide] |
